Experimental data: patent US20020106347A1, “Cytokines and their use in treatment and/or prophylaxis of breast cancer” (priority 1995, published 2002)

Key:
MCF-7 cell line = test: Receptor binding of radioiodinated ligand to MCF-7 cells, Scatchard analysis; design: species or system human; settings: for Kd: MCF-7, Scatchard analysis, read-out: dissociation constant; for specific binding(cpm)/10^6 cells: MCF-7M, 125I-ligand, room temperature 60 min
Protocol: (§1) FIG. 20 is a graphical representation showing Scatchard analyses of the saturation isotherms of LIF and OSM binding to breast cancer cell lines. Cells were incubated with various concentrations of labelled or unlabelled ligand in the presence or absence of a 10-100 fold excess of unlabelled ligand. After 18 hr on ice, bound and free ligand were separated by centrifugation through bovine calf serum. Bound and free ^125I-ligand was quantitated in a γ-counter and the data was depicted as a Scatchard transformation. Data was normalised for cell number and is shown as binding to 10^6 cells. A) Saturation isotherm of LIF binding to the MCF-7 cell line. […] B) Saturation isotherm of OSM binding to the MDA-MB-231 cell line.
(§2) Receptor binding assays were performed using radioiodinated LIF (^125I-LIF) and OSM (^125I-OSM). The radioiodination of LIF and OSM and binding assays were essentially performed as previously described (Hilton et al., 1991; Hilton and Nicola, 1992). Briefly, 50 μl aliquots containing 1×10^7 cells, suspended in RPMI-1640 medium containing 10% (v/v) BCS, were placed in Falcon tubes with 40 μl of the respective radioiodinated ligand at 1×10^5 cpm per 40 μl, with or without greater than a 40-fold excess of unlabelled ligand. Incubation was carried out at room temperature for 60 min and cells were resuspended and layered over 180 μl of (v/v) BCS. Cell associated and free radioiodinated ligand were separated by centrifugation. The pellet and supernatant were subsequently counted in a γ-counter. Specific binding was estimated by subtraction of non specific binding from binding with ^125I-ligand (total binding). Number of cell surface receptors and dissociation constant were calculated by Scatchard analysis.

[1] = system: four breast cancer cell lines; test: Proliferation of four breast cancer cell lines in monolayer culture (summary); format: cell-based, human
Protocol: (§3) Proliferation of the cell lines was measured in monolayer culture in 24 well Costar cluster plates. Cells were plated at an initial density of 10 000 cells/ml and cultured in 500 μl RPMI-1640 supplemented with 10% (v/v) (v/v) BCS and with each growth factor as indicated (LIF, 1000 U/ml; IL-6, 100 ng/ml; OSM, 10 ng/ml; CNTF, 10 ng/ml; IL-11, 100 ng/ml). These concentrations are maximally active in other systems (Nandurkar et al., 1996; Hilton et al., 1994; Zhang et al., 1994; Tanigawa et al., 1995). After 7 or 10 days at 37° C. in a fully humidified atmosphere containing 10% (v/v) CO2 in air, cells were trypsinised and counted using a haemocytometer and an inverted microscope. Cell viability was assessed using eosin exclusion. Results were expressed as a percentage of the corresponding untreated control value for that experiment.
Experiments were performed to determine whether these morphological changes were associated with alterations in cell growth. The proliferation of four breast cancer cell lines was examined in monolayer cultures containing either IL-6, LIF, OSM, CNTF or IL-11.

HBL-100 cell line = test: Receptor binding of radioiodinated ligand to HBL-100 cells, Scatchard analysis; design: species or system human; settings: for specific binding(cpm)/10^6 cells: HBL-100, 125I-ligand, room temperature 60 min
Protocol: as §1, §2

MDA-MB-231 cells = test: Proliferation of MDA-MB-231 cells in culture, viable cell count; format: cell-based, human
Protocol: FIG. 19 is a graphical representation showing MDA-MB-231 cells after 7 days in suspension culture. 10^4MDA-MB-231 cells were cultured in 500 μl RPMI/10% (v/v) BCS with the indicated growth factor. After 7 days viable cells were counted using a hemacytometer. Results are from 8 experiments, each performed in triplicate.
as §3

MDA-MB-231 cell line = test: Receptor binding of radioiodinated ligand to MDA-MB-231 cells, Scatchard analysis; design: species or system human; settings: for specific binding(cpm)/10^6 cells: MDA-MB-231, 125I-ligand, room temperature 60 min
Protocol: as §1, §2

BT-549 cells = test: Proliferation of BT-549 cells in culture, viable cell count; format: cell-based, human; settings: for effect on cell proliferation (in words): BT-549
Protocol: FIGS 5A and B are graphical representations of BT-549 cells in liquid culture. 10^4 BT-549 cells were cultured in 500 μl RPMI/10% (v/v) BCS containing the relevant concentration of each of the growth factors (OSM, IL-11 and IL-6). After 10 days, culture viable cells were counted using a hemacytometer. Cell numbers reported here in the two graphs are the results of 1 experiment performed in triplicate.
FIG. 18 is a graphical representation showing BT-549 cells after 10 days in suspension culture. 10^4BT-549 cells were cultured in 500 μl RPMI/10% (v/v) BCS with the indicated growth factor. After 10 days culture viable cells were counted using a hemacytometer. Results are from 6 experiments, each performed in triplicate.
as §3

MCF-7 cells = test: Clonogenic assay in agar after monolayer culture; format: cell-based, human; settings: MCF-7, 7 days monolayer then 14 days agar
Protocol: FIG. 3 is a graphical representation showing clonogenicity of MCF-7M cells. Following suspension culture MCF-7M cell viability was measured by agar culture. Cells were plated in agar with the indicated concentrations of each of the growth factors. After 14 days culture colonies of cells were counted. Cell numbers reported here are the results of 3 experiments, each performed in triplicate, and are expressed according to the number of cells that went into suspension culture.
FIG. 17 is a graphical representation showing clonogenicity of MCF-7 cells after 1 week in suspension culture. Following suspension culture clonogenicity of MCF-7 cells was assayed in agar culture. Cells were plated in agar with the indicated growth factor and maintained at 37° C0 in a humidified incubator with 5% CO2 in air. After 14 days colonies of cells were counted. Results are from 9 experiments using IL-6, LIF and OSM, and 5 experiments using CNTF and IL-11. Each experiment was performed in triplicate, and colony numbers are expressed as a percentage of untreated controls.
Clonogenic potential of cells following monolayer culture was assessed in a semi-solid culture medium. Cells were cultured in triplicate in 35 mm Petri dishes containing 1 ml Iscove's modified Dulbecco's medium (IMDM) supplemented with 25% (v/v) (v/v) BCS, 0.3% (w/v) agar with final concentration of growth factor as outlined above, and with 200 cells per ml for control cultures Cultures were maintained at 37° C. in a humidified incubator with 5% (v/v) CO2 in air. After 14 days, colonies were enumerated using a dissecting microscope. A colony was defined as a clone of greater than 40 cells. All cultures were performed in triplicate.

Substance	Kd (MCF-7 cell line)	specific binding(cpm)/10^6 cells (MCF-7 cell line)	cell lines with significant inhibition of cellular proliferation [1]	specific binding(cpm)/10^6 cells (HBL-100 cell line)	Kd (HBL-100 cell line; HBL-100, Scatchard analysis, read-out: dissociation constant)	effect on cellular proliferation (in words) (MDA-MB-231 cells; MDA-MB-231)	specific binding(cpm)/10^6 cells (MDA-MB-231 cell line)	effect on cell proliferation (in words) (BT-549 cells)	effect on colony formation / clonogenic potential (in words) (MCF-7 cells)	reduced binding of radiolabelled ligand compared with the other cell lines (HBL-100 cell line; HBL-100 vs T-47D, MDA-MB-231, MCF-7)	inhibition of proliferation, up to (maximum observed) (MDA-MB-231 cells; MDA-MB-231, 7 days)	mean inhibition of proliferation (MDA-MB-231 cells; MDA-MB-231, 7 days, 8 experiments)	Kd (MDA-MB-231 cell line; MDA-MB-231, Scatchard analysis, read-out: dissociation constant)	mean growth inhibition (BT-549 cells; BT-549, 7 days)	growth inhibition, up to (maximum observed) (BT-549 cells; BT-549, 10 days)	mean growth inhibition (BT-549 cells; BT-549, 10 days)
Leukemia Inhibitory Factor [LIF]	0.0146 nM	350 +/− 100 cpm	¼	590 +/− 30 cpm	0.00749 nM	did not result in significant effects on cellular proliferation	450 +/− 120 cpm	failure of BT-549 cells and MDA-MB-231 cells to respond	significant reduction of colony formation							
oncostatin M [OSM]	2 nM	1250 +/− 90 cpm	¾	140 +/− 10 cpm			2980 +/− 460 cpm	inhibition of cell proliferation	significant reduction of colony formation	approximately 10 fold	up to 65%	54%	0.092 nM	60%	up to 80%	60%
